In brackets after ≈: the same amount, converted by molar mass. Marks after values point to notes of the source that are not given here. Non-standard residues stand in square brackets, D forms with d. Residues, ends and D or L forms follow the SMILES beside them. dPhe(3,4-Cl2) = N[C@H](Cc1ccc(Cl)c(Cl)c1)C(=O)O; dPhe(4-CF3) = N[C@H](Cc1ccc(C(F)(F)F)cc1)C(=O)O; dPhe(4-Br) = N[C@H](Cc1ccc(Br)cc1)C(=O)O
Columns and labels:
[1] = system: Candida glabrata ATCC 15126; format: cell-based
Outline: (§1)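 Peptides were tested against clinical bacterial and fungal strains by CLSI microdilution using a serial twofold dilution series, and the MIC was taken as the value. Replicates: 5, run in parallel.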

[2] = system: Corynebacterium ATCC 7715; format: cell-based
Outline: as §1

[3] = system: Klebsiella pneumoniae ATCC 700603; format: cell-based
Outline: as §1

[4] = system: Staphylococcus aureus ATCC 25923; format: cell-based
Outline: as §1

[5] = system: Bacillus subtilis ATCC 6633; format: cell-based
Outline: as §1

[6] = system: Escherichia coli ATCC 25922; format: cell-based
Outline: as §1

[7] = system: Trichophyton ATCC MYA-4438; format: cell-based
Outline: as §1

[8] = system: Salmonella typhimurium ATCC 14028; format: cell-based
Outline: as §1

[9] = system: Candida krusei ATCC 6258; format: cell-based
Outline: as §1

[10] = system: Candida albicans ATCC MYA-2876; format: cell-based
Outline: as §1

[11] = system: Serratia marcescens ATCC 29021; format: cell-based
Outline: as §1

[12] = system: Pseudomonas aeruginosa ATCC 27853; format: cell-based
Outline: as §1

[13] = system: Enterococcus ATCC 29212; format: cell-based
Outline: as §1

[14] = system: Candida utilis ATCC 9950; format: cell-based
Outline: as §1

[15] = system: Candida tropicalis ATCC 750; format: cell-based
Outline: as §1

[16] = system: Pseudomonas aeruginosa ATCC 27853; test: Injectable formulations on mice infected with peritonitis; format: in vivo, ICR mice; conditions: 1 mg/kg via tail vein, twice a day for 3 days, n = 10; for Average survival times (Days): observed for 14 d
Outline: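 ICR mice of both sexes (10 per group) infected intraperitoneally with 0.2 mL P. aeruginosa ATCC 27853 at 1×10^9 CFU/mL. Injectable formulations dosed by body weight via tail vein twice daily for 3 days; deaths and survival time recorded over 14 d.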

[17] = Serum stability assay (residual level by RP-HPLC); conditions: human
[18] = system: Staphylococcus aureus (NRS 384); test: microbe, parasite or virus in culture; format: cell-based; conditions: NRS 384
Outline: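 CLSI broth microdilution with serial twofold dilutions gave MICs against S. aureus NRS 384, with 5 parallel replicates. Levofloxacin and the AMP Cbf-K16 served as positive controls.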

[19] = system: carbapenem-resistant Escherichia coli (CREC); format: cell-based; conditions: carbapenem-resistant (CREC)
Outline: (§2)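 MICs of antimicrobial peptides determined by CLSI serial twofold microdilution against clinical drug-resistant isolates. Five parallel repeats.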

[20] = system: vancomycin-resistant Enterococcus (VRE); format: cell-based
Outline: as §2

[21] = system: carbapenem-resistant Pseudomonas aeruginosa (CRPA); format: cell-based; conditions: carbapenem-resistant (CRPA)
Outline: as §2

[22] = system: carbapenem-resistant Klebsiella pneumoniae (CRKP); format: cell-based; conditions: carbapenem-resistant (CRKP)
Outline: as §2

[23] = system: Methicillin-resistant Staphylococcus aureus (MRSA); format: cell-based; conditions: Methicillin-resistant
Outline: as §2

[24] = system: Staphylococcus aureus (NRS 384); conditions: NRS 384, 3 h
Experimental: Trypsin (250 U/mg, pH=8.0) and AMPs (LV-1 to LV-30) were mixed in a ratio of 1:10 (w/w) and added to a reaction buffer (0.2 M sodium phosphate, 1 mM CaCl2), pH 7.5), and then incubated at 37° C. for 3 h.

[25] = system: Shigella flexneri ATCC 12022; test: MIC against clinically common bacterial strain; format: cell-based
Outline: as §1

SMILES | MIC Candida glabrata ATCC 15126 [1] | MIC Corynebacterium ATCC 7715 [2] | MIC Klebsiella pneumoniae ATCC 700603 [3] | MIC Staphylococcus aureus ATCC 25923 [4] | MIC Bacillus subtilis ATCC 6633 [5] | MIC Escherichia coli ATCC 25922 [6] | MIC Trichophyton ATCC MYA-4438 [7] | MIC Salmonella typhimurium ATCC 14028 [8] | MIC Candida krusei ATCC 6258 [9] | MIC Candida albicans ATCC MYA-2876 [10] | MIC Serratia marcescens ATCC 29021 [11] | MIC Pseudomonas aeruginosa ATCC 27853 [12] | MIC Enterococcus ATCC 29212 [13] | MIC Candida utilis ATCC 9950 [14] | MIC Candida tropicalis ATCC 750 [15] | Number of mice that died on each day after infection: day 1 [16] | Number of mice that died on each day after infection: day 2 [16] | Number of mice that died on each day after infection: day 3 [16] | Number of mice that died on each day after infection: day 4 [16] | Number of mice that died on each day after infection: day 5 [16] | also measured
CC(=O)N[C@H](CCCNC(=N)N)C(=O)N[C@H](CCCCN)C(=O)N[C@H](CC(C)C)C(=O)N[C@H](CC(C)C)C(=O)N[C@H](Cc1ccc(Cl)c(Cl)c1)C(=O)N[C@H](CCCCN)C(=O)N[C@H](CC(C)C)C(=O)N[C@H](CCCCN)C(=O)N[C@H](Cc1ccc(Cl)c(Cl)c1)C(=O)N[C@H](CCCCN)C(=O)N[C@H](CCCNC(=N)N)C(N)=O [LV-8] (Ac-[dR][dK][dL][dL][dPhe(3,4-Cl2)][dK][dL][dK][dPhe(3,4-Cl2)][dK][dR]-NH2) | 16 µg/mL (≈ 9.66 µM) | 2 µg/mL (≈ 1.21 µM) | 4 µg/mL (≈ 2.42 µM) | 1 µg/mL (≈ 0.604 µM) | 2 µg/mL (≈ 1.21 µM) | 2 µg/mL (≈ 1.21 µM) | 8 µg/mL (≈ 4.83 µM) | 2 µg/mL (≈ 1.21 µM) | 16 µg/mL (≈ 9.66 µM) | 16 µg/mL (≈ 9.66 µM) | 2 µg/mL (≈ 1.21 µM) | 2 µg/mL (≈ 1.21 µM) | 2 µg/mL (≈ 1.21 µM) | 8 µg/mL (≈ 4.83 µM) | 16 µg/mL (≈ 9.66 µM) | 1 Mouse | 1 Mouse | 0 Mouse | 1 Mouse | 1 Mouse | Average survival times (Days) [16]: 9.6*** Days; remaining at 12 h, 0.91 mg/mL [17]: 97.6%; MIC against Staphylococcus aureus (NRS 384) [18]: 1 µg/mL (≈ 0.604 µM); MIC CREC [19]: 4 µg/mL (≈ 2.42 µM); MIC VRE [20]: 8 µg/mL (≈ 4.83 µM); MIC CRPA [21]: 8 µg/mL (≈ 4.83 µM); MIC CRKP [22]: 2 µg/mL (≈ 1.21 µM); MIC MRSA [23]: 4 µg/mL (≈ 2.42 µM); Trypsin MIC [24]: 1 µg/mL; MIC Shigella flexneri ATCC 12022 [25]: 4 µg/mL (≈ 2.42 µM)
CC(=O)N[C@H](CCCNC(=N)N)C(=O)N[C@H](CCCCN)C(=O)N[C@H](CC(C)C)C(=O)N[C@H](CC(C)C)C(=O)N[C@H](Cc1ccc(C(F)(F)F)cc1)C(=O)N[C@H](CCCCN)C(=O)N[C@H](CC(C)C)C(=O)N[C@H](CCCCN)C(=O)N[C@H](Cc1ccc(C(F)(F)F)cc1)C(=O)N[C@H](CCCCN)C(=O)N[C@H](CCCNC(=N)N)C(N)=O [LV-9] (Ac-[dR][dK][dL][dL][dPhe(4-CF3)][dK][dL][dK][dPhe(4-CF3)][dK][dR]-NH2) | 8 µg/mL (≈ 4.84 µM) | 2 µg/mL (≈ 1.21 µM) | 2 µg/mL (≈ 1.21 µM) | 2 µg/mL (≈ 1.21 µM) | 8 µg/mL (≈ 4.84 µM) | 2 µg/mL (≈ 1.21 µM) | 16 µg/mL (≈ 9.67 µM) | 2 µg/mL (≈ 1.21 µM) | 16 µg/mL (≈ 9.67 µM) | 8 µg/mL (≈ 4.84 µM) | 4 µg/mL (≈ 2.42 µM) | 2 µg/mL (≈ 1.21 µM) | 4 µg/mL (≈ 2.42 µM) | 16 µg/mL (≈ 9.67 µM) | 16 µg/mL (≈ 9.67 µM) | 1 Mouse | 2 Mouse | 0 Mouse | 1 Mouse | 0 Mouse | Average survival times (Days) [16]: 9.3*** Days; remaining at 12 h, 0.91 mg/mL [17]: 97.3%; MIC against Staphylococcus aureus (NRS 384) [18]: 1 µg/mL (≈ 0.605 µM); MIC CREC [19]: 2 µg/mL (≈ 1.21 µM); MIC VRE [20]: 4 µg/mL (≈ 2.42 µM); MIC CRPA [21]: 4 µg/mL (≈ 2.42 µM); MIC CRKP [22]: 8 µg/mL (≈ 4.84 µM); MIC MRSA [23]: 2 µg/mL (≈ 1.21 µM); Trypsin MIC [24]: 1 µg/mL; MIC Shigella flexneri ATCC 12022 [25]: 2 µg/mL (≈ 1.21 µM)
CC(=O)N[C@H](CCCCN)C(=O)N[C@H](CCCCN)C(=O)N[C@H](CC(C)C)C(=O)N[C@H](CC(C)C)C(=O)N[C@H](Cc1ccc(Br)cc1)C(=O)N[C@H](CCCNC(=N)N)C(=O)N[C@H](CC(C)C)C(=O)N[C@H](CCCCN)C(=O)N[C@H](Cc1ccc(Br)cc1)C(=O)N[C@H](CCCNC(=N)N)C(=O)N[C@H](CCCCN)C(N)=O [LV-10] (Ac-[dK][dK][dL][dL][dPhe(4-Br)][dR][dL][dK][dPhe(4-Br)][dR][dK]-NH2) | 8 µg/mL (≈ 4.77 µM) | 8 µg/mL (≈ 4.77 µM) | 2 µg/mL (≈ 1.19 µM) | 2 µg/mL (≈ 1.19 µM) | 2 µg/mL (≈ 1.19 µM) | 1 µg/mL (≈ 0.597 µM) | 8 µg/mL (≈ 4.77 µM) | 2 µg/mL (≈ 1.19 µM) | 8 µg/mL (≈ 4.77 µM) | 8 µg/mL (≈ 4.77 µM) | 4 µg/mL (≈ 2.39 µM) | 2 µg/mL (≈ 1.19 µM) | 2 µg/mL (≈ 1.19 µM) | 8 µg/mL (≈ 4.77 µM) | 4 µg/mL (≈ 2.39 µM) | 0 Mouse | 1 Mouse | 1 Mouse | 2 Mouse | 0 Mouse | Average survival times (Days) [16]: 9.7*** Days; remaining at 12 h, 0.91 mg/mL [17]: 98%; MIC against Staphylococcus aureus (NRS 384) [18]: 1 µg/mL (≈ 0.597 µM); MIC CREC [19]: 4 µg/mL (≈ 2.39 µM); MIC VRE [20]: 8 µg/mL (≈ 4.77 µM); MIC CRPA [21]: 2 µg/mL (≈ 1.19 µM); MIC CRKP [22]: 2 µg/mL (≈ 1.19 µM); MIC MRSA [23]: 4 µg/mL (≈ 2.39 µM); Trypsin MIC [24]: 1 µg/mL; MIC Shigella flexneri ATCC 12022 [25]: 2 µg/mL (≈ 1.19 µM)

Reference: patent US20250304620A1, “ANTIMICROBIAL PEPTIDE AND APPLICATION THEREOF” (priority 2023, published 2025)
